Data published in ChEMBL document CHEMBL3621049, “Imidazole derivatives show anticancer potential by inducing apoptosis and cellular senescence” (2014).
Calls of active or inactive are those of the source. The calls are words filed in the database; no cut-off is given here.

Columns and labels:
MDA-MB-231 = assay: Growth inhibition of human MDA-MB-231 cells at 10 uM by sulforhodamine B assay; format: functional, cell-based
SK-MEL-28 = assay: Growth inhibition of human SK-MEL-28 cells at 10 uM by sulforhodamine B assay; format: functional, cell-based
SF-295 = assay: Growth inhibition of human SF295 cells at 10 uM by sulforhodamine B assay; format: functional, cell-based
A549 [1] = assay: Cell cycle arrest in human A549 cells assessed as accumulation at S phase at 10 uM after 48 hrs using propidium iodide staining by flow cytometer analysis (reference value: 6.67%); format: functional
HCC 2998 = assay: Growth inhibition of human HCC2998 cells at 10 uM by sulforhodamine B assay; format: functional, cell-based
A549 [2] = assay: Inhibition of colony formation in human A549 cells after 14 days using crystal violet staining by soft agar assay; format: functional, cell-based
U-251 = assay: Growth inhibition of human U251 cells at 10 uM by sulforhodamine B assay; format: functional, cell-based
OVCAR-4 = assay: Growth inhibition of human OVCAR4 cells at 10 uM by sulforhodamine B assay; format: functional, cell-based
A549 [3] = assay: Cell cycle arrest in human A549 cells assessed as accumulation at G0/G1 phase at 5 uM after 48 hrs using propidium iodide staining by flow cytometer analysis (reference value: 79.34%); format: functional
LOX IMVI = assay: Growth inhibition of human LOXIMVI cells at 10 uM by sulforhodamine B assay; format: functional, cell-based
A549 [4] = assay: Induction of morphological changes in human A549 cells at 10 to 50 uM; format: functional, cell-based
HCT-15 = assay: Growth inhibition of human HCT15 cells at 10 uM by sulforhodamine B assay; format: functional, cell-based
RXF 393 = assay: Growth inhibition of human RXF393 cells at 10 uM by sulforhodamine B assay; format: functional, cell-based
CAKI-1 = assay: Growth inhibition of human Caki1 cells at 10 uM by sulforhodamine B assay; format: functional, cell-based
MDA-MB-468 = assay: Growth inhibition of human MDA-MB-468 cells at 10 uM by sulforhodamine B assay; format: functional, cell-based
A549 [5] = assay: Inhibition of colony formation in human A549 cells assessed as change in colony morphology after 14 days using crystal violet staining by soft agar assay; format: functional, cell-based
A549 [6] = assay: Cell cycle arrest in human A549 cells assessed as accumulation at G2/M phase at 20 uM after 48 hrs using propidium iodide staining by flow cytometer analysis (reference value: 13.02%); format: functional
BT-549 = assay: Growth inhibition of human BT549 cells at 10 uM by sulforhodamine B assay; format: functional, cell-based
HCT-116 = assay: Growth inhibition of human HCT116 cells at 10 uM by sulforhodamine B assay; format: functional, cell-based
DU-145 = assay: Growth inhibition of human DU145 cells at 10 uM by sulforhodamine B assay; format: functional, cell-based
M14 = assay: Growth inhibition of human M14 cells at 10 uM by sulforhodamine B assay; format: functional, cell-based
786-0 = assay: Growth inhibition of human 786-0 cells at 10 uM by sulforhodamine B assay; format: functional, cell-based
A549 [7] = assay: Cell cycle arrest in human A549 cells assessed as accumulation at S phase at 20 uM after 48 hrs using propidium iodide staining by flow cytometer analysis (reference value: 6.67%); format: functional
SNB-19 = assay: Growth inhibition of human SNB19 cells at 10 uM by sulforhodamine B assay; format: functional, cell-based
HOP-92 = assay: Growth inhibition of human HOP92 cells at 10 uM by sulforhodamine B assay; format: functional, cell-based
SK-MEL-5 = assay: Growth inhibition of human SK-MEL-5 cells at 10 uM by sulforhodamine B assay; format: functional, cell-based
KM12 = assay: Growth inhibition of human KM12 cells at 10 uM by sulforhodamine B assay; format: functional, cell-based
A549 [8] = assay: Growth inhibition of human A549/ATCC cells at 10 uM by sulforhodamine B assay; format: functional, cell-based
SF-268 = assay: Growth inhibition of human SF268 cells at 10 uM by sulforhodamine B assay; format: functional, cell-based

With COc1ccc(-c2nc(-c3ccccn3)c(-c3ccccn3)n2CC(C)C)cc1OC1CCCC1 the “growth inhibition (GI)” value (MDA-MB-231) was “Active”, the “growth inhibition (GI)” value (SK-MEL-28) was “Active” and the “growth inhibition (GI)” value (SF-295) was “Active”. The Activity (A549 [1]) was 9.95%, the “growth inhibition (GI)” value (HCC 2998) was “Active” and the inhibition (A549 [2]) was “Dose-dependent effect”. For the same molecule, the “growth inhibition (GI)” value (U-251) was “Active”, the “growth inhibition (GI)” value (OVCAR-4) was “Active” and the Activity (A549 [3]) was 89.38%. The “growth inhibition (GI)” value (LOX IMVI) was “Active”, the Activity (A549 [4]) was “Active” and the “growth inhibition (GI)” value (HCT-15) was “Active”. The “growth inhibition (GI)” value (RXF 393) was “Active”, the “growth inhibition (GI)” value (CAKI-1) was “Active” and the “growth inhibition (GI)” value (MDA-MB-468) was “Active”. For the same molecule, the inhibition (A549 [5]) was “Active”, the Activity (A549 [6]) was 4.51% and the “growth inhibition (GI)” value (BT-549) was “Active”. For the same molecule, the “growth inhibition (GI)” value (HCT-116) was “Active”, the “growth inhibition (GI)” value (DU-145) was “Active” and the “growth inhibition (GI)” value (M14) was “Active”. For the same molecule, the “growth inhibition (GI)” value (786-0) was “Active”, the Activity (A549 [7]) was 6.63% and the “growth inhibition (GI)” value (SNB-19) was “Active”. The “growth inhibition (GI)” value (HOP-92) was “Active”, the “growth inhibition (GI)” value (SK-MEL-5) was “Active” and the “growth inhibition (GI)” value (KM12) was “Active”. For the same molecule, the “growth inhibition (GI)” value (A549 [8]) was “Active” and the “growth inhibition (GI)” value (SF-268) was “Active”.
